The assay concerns ADP-induced platelet aggregation in dog platelet-rich plasma (PRP). As to the kind of experiment: In-Vitro Platelet Aggregation in PRP. In kind it is cell-based. The conditions noted are these: aggregation induced by ADP (50 μm final concentration), 1 minute preincubation at 37° C. Here is the method:
In-Vitro Platelet Aggregation in PRP
Healthy male or female dogs were fasted for 8 hours prior to drawing blood; then 30 ml whole blood was collected using a butterfly needle and 30 cc plastic syringe with 3 ml of 0.129M buffered sodium citrate (3.8%). The syringe was rotated carefully as blood was drawn to mix the citrate. Platelet-rich plasma (PRP) was prepared by centrifugation at 975×g for 3.17 minutes at room temperature, allowing the centrifuge to coast to a stop without braking. The PRP was removed from the blood with a plastic pipette and placed in a plastic capped, 50 ml Corning conical sterile centrifuge tube which was held at room temperature. Platelet poor plasma (PPP) was prepared by centrifuging the remaining blood at 2000×g for 15 minutes at room temperature allowing the centrifuge to coast to a stop without braking. The PRP was adjusted with PPP to a count of 2-3×10^8 platelets per ml. 400 μl of the PRP preparation and 50 μl of the compound to be tested or saline were preincubated for 1 minute at 37° C. in a BioData aggregometer (BioData, Horsham, Pa.). 50 μl of adenosine 5'-diphosphate (ADP) (50 μm final concentration) was added to the cuvettes and the aggregation was monitored for 1 minute. […] Results are calculated as follows: [formula]
The assay results for the compound of Example 1 and its median inhibitory concentration (IC50) is recorded in Table I.

As usually defined, the IC50 is the concentration that gives 50% inhibition. The low end stands for higher potency, the high end for lower potency. `N=C(N)c1ccc(NC(=O)CCC(=O)N[C@@H](CC(=O)O)C(=O)N[C@@H](CCCCN)C(=O)O)cc1` [Example 1, N-[4-[[4-(aminoiminomethyl)phenyl]amino]-1,4-dioxobutyl]-L-aspartyl]-L-lysine bistrifluoroacetate] displayed an IC50 of 180 nM.
